Source: US4870097A, “Pharmaceutical use of derivatives of tryptophan” (priority 1984, dated 1989)
“Also recorded” adds a separate entry of the source.

System: activity of analgesic drugs
Assay: Hot plate test: potentiation of analgesic drugs
Assay type: in vivo, rats
Experimental: The method is that described by Eddy et al. (J. Pharmac. Exp. Ther. 107, 385 (1953)).
Groups of five male rats having a weight of about 150 g and which have not been fasting are used.
The animals are placed on a metal plate which is on the bottom of a transparent cylinder heated to 55°±1° C. by an azeotropic boiling mixture (1:1 acetone-ethyl formate). The time which passes between the moment at which the animal is placed on the hot plate and the moment at which it licks its feet or tries to jump out of the cylinder is defined as the reaction time. The control reaction time is measured 10 and 5 minutes before the administration of the drugs and 10, 20, 30, 45, 60, 90 minutes afterwards. The animals are left on the plate for a maximum period of 30 seconds.
The response to the administration of the product is considered positive if at least a doubling of the normal reaction time is seen. The results obtained are given in Table 2 which records the groups treated, the dose administered and the stay times on the plate expressed as the number of positive responses over the number treated.

[1] = acetylsalicylic acid 100 + C. 26 5 mg/kg i.p.
[2] = acetylsalicylic acid 100 + C. 26 10 mg/kg i.p.
[3] = acetylsalicylic acid 100 + C. 26 20 mg/kg i.p.
[4] = propoxyphene 15 + C. 26 1 mg/kg i.p.
[5] = propoxyphene 15 + C. 26 2.5 mg/kg i.p.
[6] = propoxyphene 15 + C. 26 5.0 mg/kg i.p.
[7] = oxyphenylbutazone 50 + C. 33 5 mg/kg i.p.
[8] = oxyphenylbutazone 50 + C. 33 10 mg/kg i.p.
[9] = oxyphenylbutazone 50 + C. 33 20 mg/kg i.p.

Structure (SMILES): CCCCCCc1ccc(C(=O)N[C@@H](Cc2c[nH]c3ccccc23)C(=O)O)cc1 [Compound 26]
- Positive Total X/25 [1]: 15
- positive responses over the number treated, 10' [1]: 3/5
- positive responses over the number treated, 20' [1]: 2/5
- positive responses over the number treated, 30' [1]: 4/5
- positive responses over the number treated, 45' [1]: 4/5
- positive responses over the number treated, 60' [1]: 2/5
- Positive Total X/25 [2]: 21
- positive responses over the number treated, 10' [2]: 5/5
- positive responses over the number treated, 20' [2]: 4/5
- positive responses over the number treated, 30' [2]: 5/5
- positive responses over the number treated, 45' [2]: 4/5
- positive responses over the number treated, 60' [2]: 3/5
- Positive Total X/25 [3]: 23
- positive responses over the number treated, 10' [3]: 4/5
- positive responses over the number treated, 20' [3]: 5/5
- positive responses over the number treated, 30' [3]: 5/5
- positive responses over the number treated, 45' [3]: 5/5
- positive responses over the number treated, 60' [3]: 4/5
- Positive Total X/25 [4]: 15
- positive responses over the number treated, 10' [4]: 2/5
- positive responses over the number treated, 20' [4]: 3/5
- positive responses over the number treated, 30' [4]: 4/5
- positive responses over the number treated, 45' [4]: 3/5
- positive responses over the number treated, 60' [4]: 3/5
- Positive Total X/25 [5]: 20
- positive responses over the number treated, 10' [5]: 3/5
- positive responses over the number treated, 20' [5]: 5/5
- positive responses over the number treated, 30' [5]: 5/5
- positive responses over the number treated, 45' [5]: 4/5
- positive responses over the number treated, 60' [5]: 3/5
- Positive Total X/25 [6]: 24
- positive responses over the number treated, 10' [6]: 4/5
- positive responses over the number treated, 20' [6]: 5/5
- positive responses over the number treated, 30' [6]: 5/5
- positive responses over the number treated, 45' [6]: 5/5
- positive responses over the number treated, 60' [6]: 5/5
- analgesic activity of propoxyphene (in words) (with propoxyphene, 2.5 mg/kg i.p. (double), 5 mg/kg i.p. (maximum effect)): at least double the analgesic activity of propoxyphene; also recorded: a maximum effect

Structure (SMILES): O=C(N[C@@H](Cc1c[nH]c2ccccc12)C(=O)O)OC(c1ccccc1)c1ccccc1 [Compound 33]
- Positive Total X/25 [7]: 17
- positive responses over the number treated, 10' [7]: 3/5
- positive responses over the number treated, 20' [7]: 3/5
- positive responses over the number treated, 30' [7]: 4/5
- positive responses over the number treated, 45' [7]: 4/5
- positive responses over the number treated, 60' [7]: 3/5
- Positive Total X/25 [8]: 21
- positive responses over the number treated, 10' [8]: 3/5
- positive responses over the number treated, 20' [8]: 5/5
- positive responses over the number treated, 30' [8]: 5/5
- positive responses over the number treated, 45' [8]: 5/5
- positive responses over the number treated, 60' [8]: 3/5
- Positive Total X/25 [9]: 22
- positive responses over the number treated, 10' [9]: 4/5
- positive responses over the number treated, 20' [9]: 5/5
- positive responses over the number treated, 30' [9]: 5/5
- positive responses over the number treated, 45' [9]: 4/5
- positive responses over the number treated, 60' [9]: 4/5
